In US20240390414A1 (priority 2023, published 2024):

Columns and labels:
[1] = Text: With or without one or more of the following adjuvant cofactors given one to three times daily
I did Viome testing and must avoid some foods and take pre and pro biotics that they recommend.

[2] = tested on: human microglia and astrocytes; details: cited from earlier work
[3] = 2018 study, cited from earlier work
[4] = tested on: differentiated human derived cell lines; details: glial cells activated by LPS/IFNγ or IFNγ and treated with STS; cited from earlier work
[5] = corn and wheat samples; cited from earlier work
[6] = cited from earlier work

O=S([O-])([O-])=S.[Na+].[Na+] [STS, Sodium thiosulfate]
changes observed (patient questionnaire comment) ([1]; in combination with sporanox): more aware and more present
stimming reduced ([1]; on day 1, one patient's comment): 80-90%
reduction in finger flicking and finger writing stimming ([1]; one patient's comment): 30 to 40%
H2S and GSH expression [2]: increases
toxicity of deoxynivalenol (DON) ([3]; Journal of Environmental Science and Health): reduced the toxicity
levels of oxidative stress and inflammation caused by DON exposure [3]: able to reduce the levels of oxidative stress and inflammation
neuroprotection [4]: significant enhancement of neuroprotection
levels of aflatoxins, ochratoxin A, and zearalenone [5]: significantly reduce the levels

O.O.O.O.O.O=S([O-])([O-])=S.[Na+].[Na+] [sodium thiosulfate pentahydrate]
treatment for calciphylaxis ([6]; Ackermann et al. 2007): effective treatment for calciphylaxis
treatment for vascular calcification ([6]; O'Neill 2008): effective treatment for vascular calcification
prevention of platinum-induced ototoxicity and nephrotoxicity ([6]; Skinner 1995): effective treatment to prevent platinum-induced ototoxicity and nephrotoxicity
